# Tested on: 422866-222-R5-J1-PDC spheroid viability
# Assay: Anticancer human tumor 422866-222-R5-J1-PDC patient-derived pancreatic adenocarcinoma cell line growth inhibition [CLK]
# Settings: spheroids with HUVEC and MSC; for IC50: curve of first compound; for viability, T/C: stronger effect = lower value
# Outline: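 Multi-cell-type spheroids combined patient-derived tumor cells with HUVEC endothelial cells and human mesenchymal stem cells. Paired agents were dosed in half-log steps down from about clinical Cmax, or from 10 microM where Cmax was unknown.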
# [1] = second compound 0.0316 µM, first compound 0.0316 µM
# [2] = second compound 0.0316 µM, first compound 0.1 µM
# [3] = second compound 0.0316 µM, first compound 0.316 µM
# [4] = second compound 0.0316 µM, first compound 1 µM
# [5] = second compound 0.0316 µM, first compound 3.16 µM
# [6] = second compound 0.0316 µM, first compound 10 µM
# [7] = second compound 0.1 µM, first compound 0.0316 µM
# [8] = second compound 0.1 µM, first compound 0.1 µM
# [9] = second compound 0.1 µM, first compound 0.316 µM
# [10] = second compound 0.1 µM, first compound 1 µM
# [11] = second compound 0.1 µM, first compound 3.16 µM
# [12] = second compound 0.1 µM, first compound 10 µM
# [13] = second compound 0.316 µM, first compound 0.0316 µM
# [14] = second compound 0.316 µM, first compound 0.1 µM
# [15] = second compound 0.316 µM, first compound 0.316 µM
# [16] = second compound 0.316 µM, first compound 1 µM
# [17] = second compound 0.316 µM, first compound 3.16 µM
# [18] = second compound 0.316 µM, first compound 10 µM
# [19] = second compound 1 µM, first compound 0.0316 µM
# [20] = second compound 1 µM, first compound 0.1 µM
# [21] = second compound 1 µM, first compound 0.316 µM
# [22] = second compound 1 µM, first compound 1 µM
# [23] = second compound 1 µM, first compound 3.16 µM
# [24] = second compound 1 µM, first compound 10 µM
# [25] = second compound 3.16 µM, first compound 0.0316 µM
# [26] = second compound 3.16 µM, first compound 0.1 µM
# [27] = second compound 3.16 µM, first compound 0.316 µM
# [28] = second compound 3.16 µM, first compound 1 µM
# [29] = second compound 3.16 µM, first compound 3.16 µM
# [30] = second compound 3.16 µM, first compound 10 µM
# [31] = second compound 10 µM, first compound 0.0316 µM
# [32] = second compound 10 µM, first compound 0.1 µM
# [33] = second compound 10 µM, first compound 0.316 µM
# [34] = second compound 10 µM, first compound 1 µM
# [35] = second compound 10 µM, first compound 3.16 µM
# [36] = second compound 10 µM, first compound 10 µM
# 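Further: spheroids exposed to agents for seven days before readout.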
structure (smiles),measurement,setting,value
COc1ccc([C@@H](O)c2cc(-c3ncnc4cc(N5CCOCC5)ccc34)c(F)cc2Cl)nn1 + CN1CCN(c2cc(C(=O)Nc3cc4cc(-c5cnn(C)c5)ccc4cn3)ccn2)CC1,IC50,second compound 0.0316 µM,5480 nM
same,IC50,second compound 0.1 µM,5040 nM
same,IC50,second compound 0.316 µM,7110 nM
same,IC50,second compound 1 µM,< 31.6 nM
same,IC50,second compound 3.16 µM,< 31.6 nM
same,IC50,second compound 10 µM,< 31.6 nM
same,"viability, T/C",[1],116%
same,"viability, T/C",[2],96.8%
same,"viability, T/C",[3],88.8%
same,"viability, T/C",[4],77.4%
same,"viability, T/C",[5],59%
same,"viability, T/C",[6],39.5%
same,"viability, T/C",[7],114%
same,"viability, T/C",[8],98.8%
same,"viability, T/C",[9],94.3%
same,"viability, T/C",[10],73.6%
same,"viability, T/C",[11],56%
same,"viability, T/C",[12],40.4%
same,"viability, T/C",[13],98.7%
same,"viability, T/C",[14],87.8%
same,"viability, T/C",[15],81.4%
same,"viability, T/C",[16],77.7%
same,"viability, T/C",[17],52.9%
same,"viability, T/C",[18],48%
same,"viability, T/C",[19],18.2%
same,"viability, T/C",[20],18.5%
same,"viability, T/C",[21],22.9%
same,"viability, T/C",[22],16.7%
same,"viability, T/C",[23],20.9%
same,"viability, T/C",[24],19.1%
same,"viability, T/C",[25],7.87%
same,"viability, T/C",[26],8.87%
same,"viability, T/C",[27],9.25%
same,"viability, T/C",[28],8.71%
same,"viability, T/C",[29],11.4%
same,"viability, T/C",[30],14.6%
same,"viability, T/C",[31],1.27%
same,"viability, T/C",[32],1.38%
same,"viability, T/C",[33],1.7%
same,"viability, T/C",[34],2.13%
same,"viability, T/C",[35],3.04%
same,"viability, T/C",[36],2.69%
COc1cccc2c1C(=O)c1c(O)c3c(c(O)c1C2=O)CC(O)(C(=O)CO)CC3OC1CC(N)C(O)C(C)O1 (centres undefined) + CN1CCN(c2cc(C(=O)Nc3cc4cc(-c5cnn(C)c5)ccc4cn3)ccn2)CC1,IC50,second compound 0.0316 µM,109 nM
same,IC50,second compound 0.1 µM,174 nM
same,IC50,second compound 0.316 µM,220 nM
same,IC50,second compound 1 µM,< 31.6 nM
same,IC50,second compound 3.16 µM,< 31.6 nM
same,IC50,second compound 10 µM,< 31.6 nM
same,"viability, T/C",[1],73.1%
same,"viability, T/C",[2],50.2%
same,"viability, T/C",[3],40.9%
same,"viability, T/C",[4],28.2%
same,"viability, T/C",[5],31%
same,"viability, T/C",[6],36%
same,"viability, T/C",[7],74%
same,"viability, T/C",[8],59.4%
same,"viability, T/C",[9],38.5%
same,"viability, T/C",[10],34.3%
same,"viability, T/C",[11],39.9%
same,"viability, T/C",[12],47.1%
same,"viability, T/C",[13],73%
same,"viability, T/C",[14],67.4%
same,"viability, T/C",[15],42.1%
same,"viability, T/C",[16],35.8%
same,"viability, T/C",[17],30.7%
same,"viability, T/C",[18],46.5%
same,"viability, T/C",[19],19.8%
same,"viability, T/C",[20],16.7%
same,"viability, T/C",[21],15.3%
same,"viability, T/C",[22],20.3%
same,"viability, T/C",[23],38%
same,"viability, T/C",[24],54.5%
same,"viability, T/C",[25],8.41%
same,"viability, T/C",[26],7.95%
same,"viability, T/C",[27],11.9%
same,"viability, T/C",[28],22.1%
same,"viability, T/C",[29],33.8%
same,"viability, T/C",[30],51%
same,"viability, T/C",[31],1.49%
same,"viability, T/C",[32],1.52%
same,"viability, T/C",[33],2.85%
same,"viability, T/C",[34],3.41%
same,"viability, T/C",[35],10.8%
same,"viability, T/C",[36],13.8%

# From PubChem BioAssay AID2060603 (Molecular Pharmacology Branch, DTP, NCI, 2025)
